Results on three compounds are retold here after patent publication US20100323968A1, “Process of inhibiting cell death in injured cartilage” (The Scripps Research Institute, priority 2001, published 2010).

Entries after “also recorded” stand apart in the source; their conditions may differ. Where a SMILES comes first, the peptide text is derived from it. The star is where a group is joined. Cbz = O=C(OCc1ccccc1)*; CH2F = FC*

For assay [1], the system named is bovine cartilage explants. In words: Apoptosis (TUNEL) in mechanically injured bovine cartilage explants. The following applies: for Mean (±SD) apoptosis rates, Loaded + Agent: bovine femoral condyle cartilage, loaded at 23 MPa, in vitro, n = 8 to 10. Format: cell-based. The source says: Cartilage explants. Macroscopically normal weight bearing portions of freshly slaughtered skeletally mature bovine femoral condyles were selected from animals between 2 and 6 years of age (Animal Technologies, Austin, Tex.). Only joints without visible signs of degeneration or aging were selected. Using sterile techniques, full thickness cartilage was separated from underlying subchondral bone with a scalpel and 5 mm diameter cylindrical explants, ranging from 1 to 1.8 mm in height, cored out using a dermal punch (Acuderm, Inc., Ft. Lauderdale, Fla.). Explants taken from adjacent sites were used as matched controls for each group in each experiment to minimize variation in cartilage response due to differences in thickness and location within the joint. Each explant was weighed and allowed to stabilize at 37° C. and 5% CO2 for 48 hours in 1 ml of Dulbecco's modified Eagle's medium (DMEM) supplemented with 10% fetal bovine serum (FBS), L-glutamine, antibiotics and 50 μg/ml ascorbic acid.
Full thickness bovine cartilage explants, 5 mm in diameter, were subjected to a single static mechanical load of 7, 14 or 23 MPa for 500 msec. This model simulates traumatic cartilage injury and the loads were similar in magnitude to those generated during traumatic joint injury. Glycosaminoglycan (GAG) release and percent apoptotic cells were measured. The effect of a pan-caspase inhibitor, z-VAD.fmk [benzyloxycarbonyl-Val-Ala-Asp (OMe) fluoromethylketone] in preventing chondrocyte apoptosis was determined. z-VAD.fmk is a fluoromethylketone irreversible inhibitor of a broad spectrum of caspases. […] The percentage of apoptotic chondrocytes was related to load intensity and correlated with the level of GAG release from cartilage. […] This identifies a new approach to limit traumatic cartilage injury and the subsequent development of secondary osteoarthritis.
Loading apparatus and procedure. A model to simulate acute joint injury was used in this study based on injury models reported by Repo and Finlay, and Jeffrey et al. (Repo, et al. (1977) J. Bone Joint Surg. Am. 59A, 1068-1076, Jeffrey, et al. (1995) Arch. Biochem. Biophys. 322, 87-96). Although these reported models impacted cartilage using drop towers, a more controlled method was chosen for applying and maintaining stress or strain as follows. An Instron 8511 servohydraulic testing machine (Instron Corporation, Boston, Mass.) was used to mechanically load the cartilage explants. Explants were transported from the incubator to the Instron machine in sealed cell culture dishes. The explant was centralized on a stainless steel loading platform and a radially unconfined compressive load was applied through an impermeable stainless steel platen. A small preload (0.1 MPa) was applied for 2 minutes, followed by a single 500 msec trapezoidal loading waveform at the selected stress. The stress rose from 0.1 MPa to the chosen stress level in 100 msec and was maintained for 500 msec. Three stress levels were chosen to represent acute joint injury. 7 MPa has been reported to be the upper limit of physiologic stress developed during activities of daily living (von Eisenhart, et al. (1999) J. Orthop. Res. 17, 532-539). 23 MPa is the stress above which the underlying bone has been reported to fracture (Haut (1989) J. Orthop. Res. 7, 272-280). Control explants were placed in the loading apparatus but not loaded. […] Stress and strain data were recorded during the test. […]

Assay [2] relates to human cartilage explants. In words: Apoptosis (TUNEL) in mechanically injured human cartilage explants. In kind it is cell-based. As to conditions: for Mean (±SD) apoptosis rates, Loaded + Agent: human cartilage (femoral condyles and tibial plateaus), in vitro, n = 8 to 10. From the text: Cartilage explants. Macroscopically normal tibial and femoral articular surfaces were selected from human cadaver donors between 18 and 45 years of age. Using sterile techniques, full thickness cartilage was separated from underlying subchondral bone with a scalpel. 5 mm diameter cylindrical explants, ranging from 2 to 2.8 mm in thickness, cored out using a dermal punch (Acuderm, Inc., Ft. Lauderdale, Fla.). Explants taken from adjacent sites were used as matched controls for each group in each experiment to minimize variation in cartilage response due to differences in thickness and location within the joint. Each explant was weighed and allowed to stabilize at 37° C. and 5% CO2 for 48 hours in Dulbecco's modified Eagle's medium (DMEM) supplemented with 5% fetal bovine serum (FBS), L-glutamine, antibiotics and […] ascorbic acid.
Loading apparatus and procedure. An Instron 8511 servohydraulic testing machine (Instron Corporation, Boston, Mass.) was used to mechanically load the cartilage explants. Explants were transported from the incubator to the Instron machine in sealed cell culture dishes. The total time duration of loading for a single experiment varied from approximately 1 to 2 hours depending on the number of samples. During this time, explants were maintained at 37° C. The explant was centralized on a stainless steel loading platform and a radially unconfined compressive load was applied through an impermeable stainless steel platen. […] Stress and strain data were recorded during the test.
Caspase inhibition. […] Percentage apoptosis was measured at 96 hours post-injury in three groups (control, loaded, and loaded with z-VAD.fmk) with ten explants each in two separate experiments.
Apoptosis detection. […] This was detected by immunohistochemical staining with M30 (Cytodeath, Boehringer Mannheim, Eugene, Oreg.), a monoclonal antibody that recognizes the neo-epitope exposed in early apoptosis.
Chondrocyte apoptosis after mechanical injury to human cartilage. […] GAG release and percentage of cells undergoing apoptosis were measured at 96 hours after injury. […]

Assay [3] deals with bovine cartilage explants. Put plainly: Glycosaminoglycan release assay (DMMB) in injured bovine cartilage explants. In kind it is cell-based. As to conditions: bovine explants after mechanical injury, z-VAD.fmk 100 μM, 48 hours. As to the method:
Glycosaminoglycan release assay. To estimate GAG depletion and release, the concentration of sulfated glycosaminoglycans was measured using […] (DMMB) as a monitor of spectrophotometric changes which occur during the formation of the sulfated GAG dye complex (Farndale, et al. (1986) Biochim. Biophys. Acts. 883, 173-177, Goldberg, et al. (1993) Agents Actions 39 Spec No, C163-C165). For GAG content measurement, samples were digested in papain and collagenase and the concentration of sulfated GAG measured using DMMB. To generate a standard curve, chondroitin-6-sulfate (Sigma, St. Louis, Mo.) was used at concentrations between 1 and 200 μg/ml. GAG released in media was normalized to the pooled mean GAG content of Control (uninjured) cartilage explants and expressed as a percentage of total GAG content.
Inhibition of apoptosis. To determine whether apoptosis could be prevented by caspase inhibition, 12 explants were loaded at 23 MPa (High Load) and cultured for 48 hours. […] Percent apoptosis and GAG release in media was measured as described above.
Release of sulfated glycosaminoglycans (GAG) was analyzed as a measure of the extent of damage sustained by the explant. […] GAG depletion was assessed by dimethylene blue binding assays of the culture supernatants and this correlated with the reduced of safranin O staining of the cartilage sections.

For assay [4], the system named is femoral and tibial articular cartilage. Put plainly: Intraarticular injection of caspase inhibitor in rabbits with anterior cruciate ligament transection (ACLT). Format: in vivo, New Zealand White rabbits. The following applies: rabbit bilateral ACLT, 25 μg intra-articular three times per week for six weeks. How it is done: Intraarticular injection of caspase inhibitor in rabbits with ligament transection. A pilot study was performed to assess feasibility and efficacy of caspase inhibition in vivo. Eight New Zealand White rabbits were divided into anterior cruciate ligament transection (ACLT) and ACLT+ caspase inhibitor (CI) groups. Both groups underwent bilateral ACLT. The ACLT+CI group was treated with intra-articular injections of 25 μg of z-VAD.fmk three times per week for six weeks while the control group received saline injections. Rabbits were euthanised at six weeks and femoral and tibial articular cartilage evaluated by India ink staining and histologic Mankin grading after Safranin-O stain.
Histologically, more knees from the ACLT group had higher Mankin scores. 87% (⅞) ACLT knees had grades 5 or higher, while 50% ( 4/8) ACLT+CI knees were graded 5 or higher. The India ink stained femoral condyles were photographed and digital images were used to quantify the surface areas of the lesions.

On to `C[C@@H]1C[C@H]2[C@@H]3CCC4=CC(=O)C=C[C@]4(C)[C@@]3(F)[C@@H](O)C[C@]2(C)[C@@]1(O)C(=O)CO` [Dexameth.], for which, in assay [1], the “Mean (±SD) apoptosis rates, Loaded + Agent” value (from here on “Mean (±SD) apoptosis rates”) is listed as 47 (±11.2) %.

For the compound `COC(=O)CC(NC(=O)C(C)NC(=O)C(NC(=O)OCc1ccccc1)C(C)C)C(=O)CF` (stereo not drawn) [z-VAD.fmk, benzyloxycarbonyl-Val-Ala-Asp (OMe) fluoromethylketone] (Cbz-Val-Ala-Asp(OMe)-CH2F; configuration not given here), the “chondrocyte apoptosis after mechanical injury (result in words)” value in assay [1] (bovine explants, z-VAD.fmk 100 μM, 23 MPa, 48 hours) is “reduced chondrocyte apoptosis”. Also, the “Mean (±SD) apoptosis rates” value is recorded as 31 (±13.9) % in assay [1] and 34 (±10.2) % in assay [2] (loaded at 23 MPa). Besides, the “reduction in the apoptosis rate” value in assay [1] (high and intermediate load groups, bovine explants) is given as more than 50%. For the same compound, the “mean reduction in apoptotic rates” value in assay [2] (human explants cultured in z-VAD.fmk immediately after injury, 30% strain, 96 hours post-injury) amounted to 50%. In addition, the results for the “GAG release / GAG depletion” value in assay [3] and in assay [3] (listed as pan-caspase inhibitor) were “normalization of the GAG depletion” and “reduction in GAG release”, respectively. The “reduction of the size of the cartilage lesions (surface area, India ink stained femoral condyles)” value in assay [4] is approximately 80%. Moreover, in assay [4] (4/8 knees, ACLT saline group 87%), the “knees with histologic Mankin grades 5 or higher” value came out at 50%. Besides, the “cartilage lesions under India ink examination (area, grade)” value in assay [4] (ACLT group grade III to IVa, listed as caspase inhibitor) is recorded as “lesions that were smaller in area; also recorded: ranged from II (minimum fibrillation)”.

In the case of “IGF-1: agent IGF-1 tested for pharmacologic modulation of apoptosis after cartilage injury in vitro”, the results for the “Mean (±SD) apoptosis rates” value in assay [1] and in assay [2] (loaded at 30% strain) were 42 (±10.9) % and 10 (±6.2) %, respectively.
